Measured values taken from patent publication US4716238A, “Chromene derivatives useful as insecticides” (Alkaloida Vegyeszeti Gyar, priority 1983, dated 1987).
Read-outs that look alike come from different tables or passages of the source.

Key:
domestic fly = assay: Domestic fly test (larvae on treated nutrient medium); format: in vivo; conditions: Musca domestica
Method: domestic fly (Musca domestica)
The fly larvae are grown on a nutrient medium of the following composition: 2 ml of milk; 2 ml of water; 2 g of wheat bran; 0.1 ml of saturated alcoholic nipagin solution.
The nutrient medium is filled into cylindrical glass vials (30×100 mm) and 25 fly larvae are raised in each vial. The test compound is dissolved in milk; the end concentration (related to milk) amounts to 0.1% which corresponds to 0.05% (related to the total nutrient medium). The solution of the active ingredient is admixed with the nutrient medium whereupon […] of domestic fly larvae of the I. stage are placed into each vial and the vials are closed with a hard cotton-wool stopper. The nymphs emerging from the larvae are collected in each vial, counted and kept in a petri dish (diameter 25 mm) until flies hatch from the nymphs. The hatched flies are counted.

cabbage butterfly = assay: Cabbage butterfly test (sprayed cabbage seedlings, II. stage larvae); format: in vivo; conditions: Pieris brassicae, 50 EC composition; for mortality at 0.1 % / survival at 0.1 %: concentration 0.1%; for mortality at 0.1 % / mortality at 0.01 %: read-out: Killing rate of larvae; for mortality at 0.01 % / survival at 0.01 %: concentration 0.01%
Method: cabbage butterfly (Pieris brassicae)
From the 50 EC of the test compound a dilution series is prepared with water and the host seedlings (cabbage) are sprayed with this composition until the spray runs down. The spray is allowed to dry whereupon 20 young larvae of the II. stage are placed on each treated plant and the seedlings are kept under so-called "long-day" illumination (18 hours of illumination and 6 hours of darkness). The nibbled plants are replaced by similarly sprayed plants if necessary. The killing rate of the insects, the growth rate of the larvae and the morphological deformations of the surviving nymphs and adults are registered.
In the 50 EC compositions P1 and test compound 1 are used in a concentration of 0.01%, and the other active ingredients in a concentration of 0.1%.

[1] = test system: Caenorhabditis elegans adult nematodes; assay: Nematocidal effect on Caenorhabditis elegans adult nematodes; format: in vivo; conditions: for Size of descendant population: control normal; for mortality at 200 µg/mL / mortality at 400 µg/mL: Caenorhabditis elegans, read-out: Lethality
Method: Caenorhabditis elegans 0.5 ml of the acetonous solution of the test compound is applied onto a NGM agar plate free from bacteria in a Petri dish. After the acetone was dried 25-30 young adults are placed on the plate. After 24 hours the surviving and killed […] are counted.

cotton bug = assay: Cotton bug test (topical application on larvae of II. stage); format: in vivo, Dysdercus fasciatus
Method: cotton bug (Dysdercus fasciatus) A dilution series is prepared from the test compound with acetone, and 0.2 μl of each dilution is topically applied onto the back part of larvae of the II. stage of growth with the aid of a Hamiltion syringe. The active ingredient is absorbed through the cuticula. The animals are kept in a large glass and fed with cotton grains and water. After adult shedding the surviving insects are observed for eventual adultoid symptoms, the egg-reproduction and the development of the ovules is evaluated too. (Remark: in the cotton bug test 50 insects are used). In each Table the control value are disclosed too.

mustard beetle = assay: Mustard beetle test; format: in vivo; conditions: Phaedon cochleariae; concentration 1%; control 100%; read-out: Survival of adults
Method: Two weeks old mustard seedlings are sprayed with a solution of 0.1 g of the test compound, 0.5 ml of dimethyl sulfoxide, and 10 μl of 50 EC composition in 10 ml of water. After the spray is dried, 20 mustard larvae of the II. stage are placed on each plant. The sprayed plants are changed every second day. The evaluation is based on the number of imagos hatching from the nymphs.

insects = conditions: prior art; cited from earlier work

SMILES | survival at 0.1 % (domestic fly; read-out: Survival, adult) | survival at 0.1 % (domestic fly; read-out: Survival, nymph) | mortality at 0.1 % (cabbage butterfly) | survival at 0.1 % (cabbage butterfly; read-out: Survival, adult) | survival at 0.1 % (cabbage butterfly; read-out: Survival, nymph) | Size of descendant population ([1]; 200 μg/ml) | Size of descendant population ([1]; 400 μg/ml) | other results
C#CCOc1cc(C)c2c(c1)OC(C)(C)C=C2 [Compound 30] | 10.6% | 50.9% | 83% | 17% | 17% | some descendants | no descendants | Remark ([1]; 200 μg/ml): paralysis; Remark ([1]; 400 μg/ml): paralysis; mortality at 200 µg/mL ([1]; 24 h): 20%; mortality at 400 µg/mL ([1]; 24 h): 30%
COc1c(OC(C)C)ccc2c1OC(C)(C)C=C2 [Compound 90, 7-isopropoxy-8-methoxy-2,2-dimethyl-2H-chromene] | 0% | 12% | 64% | 32% | 36% | reduced | reduced | mortality at 200 µg/mL ([1]; 24 h): 60%; mortality at 400 µg/mL ([1]; 24 h): 73%
CCCOc1cc(OC)c2c(c1)OC(C)(C)C=C2 [Compound 107] | 6.4% | 9.1% | 88% | 12% | 12% | – | – | –
COc1cc2c(cc1OCC(C)C)OC(C)(C)C=C2 [Compound 67] | – | – | – | – | – | – | – | LD50 (cotton bug): 0.4 μg/insect
CCC(C)Oc1ccc2c(c1OC)OC(C)(C)C=C2 (centres unmarked) [Compound 89, 7-sec.butoxy-8-methoxy-2,2-dimethyl-2H-chromene] | – | – | 100% | – | – | reduced | reduced | mortality at 200 µg/mL ([1]; 24 h): 25%; mortality at 400 µg/mL ([1]; 24 h): 85%
Cc1cc(OC(C)C)cc2c1C=CC(C)(C)O2 [Compound 19] | 27.6% | 50.9% | – | – | – | – | – | –
Cc1cc(OCC(C)C)cc2c1C=CC(C)(C)O2 [Compound 21] | 25.5% | 45.7% | 100% | – | – | – | – | survival at 1 % (mustard beetle): 27%
COc1cc(OCC(C)C)cc2c1C=CC(C)(C)O2 [Compound 110, 5-methoxy-7-isobutoxy-2,2-dimethyl-2H-chromene] | 0% | 0% | 100% | – | – | – | – | –
CCC(C)Oc1cc(C)c2c(c1)OC(C)(C)C=C2 (centres unmarked) [Compound 20] | 12.5% | 25.4% | 11% | 14% | 19% | – | – | –
COc1cc2c(cc1OC(C)C)OC(C)(C)C=C2 [6-methoxy-7-isopropoxy-2,2-dimethyl-chromene] | – | – | – | – | – | – | – | activity relative to natural P1 and P2 (insects): considerably more active than natural P1 and P2
CCOc1cc2c(cc1OC)C=CC(C)(C)O2 [Compound P3, 6-methoxy-7-ethoxy-2,2-dimethyl-2H-chromene, reference compound] | – | – | – | – | – | some descendants | no descendants | activity relative to natural P1 and P2 (insects): considerably more active than natural P1 and P2; mortality at 200 µg/mL ([1]; 24 h): 70%; mortality at 400 µg/mL ([1]; 24 h): 90%
COc1ccc2c(c1)OC(C)(C)C=C2 [Compound P1, reference compound] | – | – | – | – | – | reduced | no descendants | survival at 0.1 % (domestic fly; 0.1% related to milk (0.05% of total nutrient medium), control 100%, read-out: Survival, adult): 33.3%; survival at 0.1 % (domestic fly; 0.1% related to milk (0.05% of total nutrient medium), control 100%, read-out: Survival, nymph): 100%; mortality at 0.01 % (cabbage butterfly): 41%; survival at 0.01 % (cabbage butterfly; read-out: Survival, adult): 50%; survival at 0.01 % (cabbage butterfly; read-out: Survival, nymph): 59%; mortality at 200 µg/mL ([1]; 200 μg/ml, 24 hours): 44%; mortality at 400 µg/mL ([1]; 400 μg/ml, 24 hours): 98%
COc1c(OCC(C)C)ccc2c1OC(C)(C)C=C2 [Compound 91, 7-isobutoxy-8-methoxy-2,2-dimethyl-2H-chromene] | – | – | 93% | 7% | 7% | – | – | –
CCCOc1ccc2c(c1OC)OC(C)(C)C=C2 [Compound 88, 7-n-propoxy-8-methoxy-2,2-dimethyl-2H-chromene] | 0% | 12.7% | 100% | – | – | – | – | survival at 1 % (mustard beetle): 45%
CCOc1cc(C)c2c(c1)OC(C)(C)C=C2 [Compound 17] | 14.8% | 40% | 81% | 19% | 19% | – | – | –
CCCOc1ccc2c(c1)OC(C)(C)C=C2 [Compound 1] | – | – | – | – | – | – | – | mortality at 0.01 % (cabbage butterfly): 52%; survival at 0.01 % (cabbage butterfly; read-out: Survival, adult): 39%; survival at 0.01 % (cabbage butterfly; read-out: Survival, nymph): 48%
CC(C)=CCOc1cc2c(cc1OCC=C(C)C)OC(C)(C)C=C2 [Compound 60] | – | – | – | – | – | – | – | LD50 (cotton bug): 0.6 μg/insect
CCC(C)Oc1cc(OC)c2c(c1)OC(C)(C)C=C2 (centres unmarked) [Compound 109] | – | – | 100% | – | – | – | – | –
CCOc1ccc2c(c1OC)OC(C)(C)C=C2 [Compound 87] | 4.2% | 5.4% | 76% | 24% | 24% | reduced | no descendants | mortality at 200 µg/mL ([1]; 24 h): 40%; mortality at 400 µg/mL ([1]; 24 h): 100%
CC(C)COc1ccc2c(c1)OC(C)(C)C=C2 [Compound 3] | 28.2% | 100% | – | – | – | – | – | –
COc1cc(OC(C)C)cc2c1C=CC(C)(C)O2 [Compound 108] | – | – | 87% | 9% | 13% | – | – | –
COc1cc2c(cc1OC)OC(C)(C)C=C2 [Compound P2, reference compound] | – | – | – | – | – | no descendants | no descendants | AJH effect (cotton bug): 1 μg/insect; LD50 (cotton bug): 0.6 μg/insect; Sterilizing effect (cotton bug): 10 μg/insect; mortality at 200 µg/mL ([1]; 200 μg/ml, 24 hours): 100%; mortality at 400 µg/mL ([1]; 400 μg/ml, 24 hours): 100%
CCC(C)Oc1cc2c(cc1OC)C=CC(C)(C)O2 (centres unmarked) [Compound 66] | – | – | – | – | – | – | – | AJH effect (cotton bug): 0.1 μg/insect; LD50 (cotton bug): 0.4 μg/insect
C=CCOc1cc2c(cc1OCC=C)OC(C)(C)C=C2 [Compound 58] | – | – | – | – | – | some descendants | no descendants | mortality at 200 µg/mL ([1]; 24 h): 40%; mortality at 400 µg/mL ([1]; 24 h): 90%
Cc1cc(OC2CCCC2)cc2c1C=CC(C)(C)O2 [Compound 22] | 31.8% | 52.7% | 100% | – | – | – | – | –
